Reference: ChEMBL document CHEMBL1201862, “PubChem BioAssay data set” (2004)
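Grown in 96-well plates, cells were treated for 48 hours with each compound at five concentrations. Insufficient inhibition: endpoint recorded as highest concentration tested. GI50 marks 50% less growth.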 Activity calls are given as the source filed them. Rule as the data show it: active = GI50 up to about 1.1 µM and inactive = higher.

Experiments:
Experiment in all cases: DTP human tumour cell line panel, 48 h
DLD-1 = test system: DLD-1
OVCAR-3 = test system: OVCAR-3
LXFL 529 = test system: LXFL 529
UACC-62 = test system: UACC-62
KM-20L2 = test system: KM-20L2
DU-145 = test system: DU-145
SK-MEL-28 = test system: SK-MEL-28
HCC 2998 = test system: HCC 2998
M19-MEL = test system: M19-MEL
COLO 205 = test system: COLO 205
EKVX = test system: EKVX
SW-620 = test system: SW-620
SNB-19 = test system: SNB-19
HT-29 = test system: HT-29
OVCAR-4 = test system: OVCAR-4
DMS-273 = test system: DMS-273

Measured: GI50

CC(=O)N/C=C/c1cc(O)ccc1O
inactive: DLD-1 27.2 µM | OVCAR-3 16 µM | LXFL 529 12.7 µM | UACC-62 32.2 µM | KM-20L2 40.8 µM | DU-145 41.3 µM | SK-MEL-28 32.8 µM | HCC 2998 50.8 µM | M19-MEL 31.5 µM | COLO 205 29.1 µM | EKVX 45.2 µM | SW-620 13.9 µM | SNB-19 > 52.7 µM | HT-29 32.1 µM | OVCAR-4 32.6 µM | DMS-273 > 67.5 µM

CC1=NOC(=O)C1/N=N/c1ccc(Br)c(C)c1 (stereo unspecified)
inactive: DLD-1 24.4 µM | OVCAR-3 17.2 µM | LXFL 529 15.5 µM | UACC-62 19.3 µM | KM-20L2 33.7 µM | SK-MEL-28 26.6 µM | HCC 2998 24.8 µM | M19-MEL 18.6 µM | COLO 205 25 µM | EKVX 18 µM | SW-620 17.6 µM | SNB-19 31.2 µM | HT-29 36.2 µM | OVCAR-4 15.2 µM | DMS-273 20.2 µM

C=C1C(=O)C23C(O)CC4C5(C)CCCC4(C(O)OC5)C2C(OC(C)=O)CC1C3O (stereo unspecified)
inactive: DLD-1 5.06 µM | OVCAR-3 13.2 µM | LXFL 529 2.61 µM | UACC-62 6.73 µM | KM-20L2 8.95 µM | SK-MEL-28 10.5 µM | HCC 2998 18.2 µM | M19-MEL 13.8 µM | COLO 205 5.16 µM | EKVX 14.6 µM | SW-620 2.91 µM | SNB-19 14.7 µM | HT-29 5 µM | OVCAR-4 14.3 µM | DMS-273 17.9 µM

COc1ccc2c(c1)[n+]([O-])c(-c1c(Cl)cccc1Cl)c(N)[n+]2[O-]
inactive: DLD-1 39.4 µM | OVCAR-3 38.9 µM | LXFL 529 39.9 µM | UACC-62 37.7 µM | KM-20L2 42.2 µM | SK-MEL-28 29.9 µM | HCC 2998 72.3 µM | M19-MEL 40.3 µM | COLO 205 30.2 µM | EKVX 61.5 µM | SW-620 47.1 µM | SNB-19 50 µM | HT-29 55.5 µM | OVCAR-4 71.8 µM | DMS-273 37.5 µM

O=C(CCN(C(=O)O)S(=O)(=O)c1ccc(NC(=O)c2ccccc2)cc1)NC1CCCCC1
inactive: DLD-1 62.5 µM | OVCAR-3 > 100 µM | LXFL 529 > 100 µM | UACC-62 > 100 µM | KM-20L2 > 100 µM | SK-MEL-28 > 100 µM | HCC 2998 > 100 µM | M19-MEL 59.7 µM | COLO 205 47.4 µM | EKVX > 100 µM | SW-620 16.3 µM | SNB-19 > 100 µM | HT-29 21.6 µM | OVCAR-4 > 100 µM | DMS-273 21.7 µM

CN(/N=C/c1cccc2cccnc12)c1ccccc1
inactive: DLD-1 > 100 µM | OVCAR-3 13.2 µM | LXFL 529 89.3 µM | UACC-62 > 100 µM | KM-20L2 > 100 µM | SK-MEL-28 > 100 µM | HCC 2998 86.1 µM | M19-MEL > 100 µM | COLO 205 > 100 µM | EKVX > 100 µM | SW-620 > 100 µM | SNB-19 59.8 µM | HT-29 44.2 µM | OVCAR-4 87.5 µM | DMS-273 85.7 µM

CC(=O)OC12c3ccccc3C1CCCC21OCCCO1 (stereo unspecified)
inactive: DLD-1 > 100 µM | OVCAR-3 > 100 µM | LXFL 529 > 100 µM | UACC-62 > 100 µM | KM-20L2 > 100 µM | SK-MEL-28 > 100 µM | HCC 2998 > 100 µM | M19-MEL > 100 µM | COLO 205 > 100 µM | EKVX > 100 µM | SW-620 > 100 µM | SNB-19 > 100 µM | HT-29 > 100 µM | OVCAR-4 > 100 µM | DMS-273 > 100 µM

CN(Cc1ccccc1)C(=NC#N)N(C)Cc1ccccc1
inactive: DLD-1 > 100 µM | OVCAR-3 > 100 µM | LXFL 529 > 100 µM | UACC-62 > 100 µM | KM-20L2 > 100 µM | SK-MEL-28 > 100 µM | HCC 2998 > 100 µM | M19-MEL > 100 µM | COLO 205 > 100 µM | EKVX > 100 µM | SW-620 > 100 µM | SNB-19 > 100 µM | HT-29 > 100 µM | OVCAR-4 > 100 µM | DMS-273 > 100 µM

CN1Cc2c(nc(-c3ccccc3)c[n+]2[O-])N(C)C1
inactive: DLD-1 > 100 µM | OVCAR-3 > 100 µM | LXFL 529 > 100 µM | UACC-62 > 100 µM | KM-20L2 > 100 µM | SK-MEL-28 > 100 µM | HCC 2998 > 100 µM | M19-MEL > 100 µM | COLO 205 > 100 µM | EKVX > 100 µM | SW-620 > 100 µM | SNB-19 > 100 µM | HT-29 > 100 µM | OVCAR-4 > 100 µM | DMS-273 > 100 µM
